What was measured:
Format in all cases: in vivo
[1] = system: Italian ryegrass (Lolium mutiflorum); assay: Test C preemergence, visual plant response rating; conditions: 1000 g ai/ha
From the text: (§1) Seeds of plant species selected from barnyardgrass (Echinochloa crus-galli), kochia (Bassia scoparia), ragweed (common ragweed, Ambrosia artemisiifolia), Italian ryegrass (Lolium mutiflorum), foxtail, giant (giant foxtail, Setaria faberi), foxtail, green (green foxtail, Setaria viridis), and pigweed (Amaranthus retroflexus) were planted into a blend of loam soil and sand and treated preemergence with a directed soil spray using test chemicals formulated in anon-phytotoxic solvent mixture which included a surfactant.
(§2) At the same time, plants selected from these weed species and also wheat (Triticum aestivum), corn (Zea mays), blackgrass (Alopecurus myosuroides), and galium (catchweed bedstraw, Galium aparine) were planted in pots containing the same blend of loam soil and sand and treated with post emergence applications of test chemicals formulated in the same manner. Plants ranged in height from 2 to 10 cm and were in the one- to two-leaf stage for the postemergence treatment. Treated plants and untreated controls were maintained in a greenhouse for approximately 10 d, after which time all treated plants were compared to untreated controls and visually evaluated for injury. Plant response ratings, summarized in Table C, are based on a 0 to 100 scale where 0 is no effect and 100 is complete control. A dash (-)response means no test result.

[2] = system: barnyardgrass (Echinochloa crus-galli); assay: Test C preemergence, visual plant response rating; conditions: 1000 g ai/ha
From the text: as §1, §2

[3] = system: foxtail, giant (giant foxtail, Setaria faberi); assay: Test C preemergence, visual plant response rating; conditions: 1000 g ai/ha
From the text: as §1, §2

kochia (Bassia scoparia) [4] = assay: Test C preemergence, visual plant response rating; conditions: 1000 g ai/ha
From the text: as §1, §2

[5] = system: pigweed (Amaranthus retroflexus); assay: Test C preemergence, visual plant response rating; conditions: 1000 g ai/ha
From the text: as §1, §2

[6] = system: ragweed (common ragweed, Ambrosia artemisiifolia); assay: Test C preemergence, visual plant response rating; conditions: 1000 g ai/ha
From the text: as §1, §2

[7] = system: Italian ryegrass (Lolium mutiflorum); assay: Test C postemergence, visual plant response rating; conditions: Test C, postemergence, 1000 g ai/ha
From the text: as §1, §2

[8] = system: barnyardgrass (Echinochloa crus-galli); assay: Test C postemergence, visual plant response rating; conditions: Test C, postemergence, 1000 g ai/ha
From the text: as §1, §2

[9] = system: blackgrass (Alopecurus myosuroides); assay: Test C postemergence, visual plant response rating; conditions: Test C, postemergence, 1000 g ai/ha
From the text: as §1, §2

corn (Zea mays) [10] = assay: Test C postemergence, visual plant response rating; conditions: Test C, postemergence, 1000 g ai/ha
From the text: as §1, §2

[11] = system: foxtail, giant (giant foxtail, Setaria faberi); assay: Test C postemergence, visual plant response rating; conditions: Test C, postemergence, 1000 g ai/ha
From the text: as §1, §2

[12] = system: galium (catchweed bedstraw, Galium aparine); assay: Test C postemergence, visual plant response rating; conditions: Test C, postemergence, 1000 g ai/ha
From the text: as §1, §2

kochia (Bassia scoparia) [13] = assay: Test C postemergence, visual plant response rating; conditions: Test C, postemergence, 1000 g ai/ha
From the text: as §1, §2

[14] = system: pigweed (Amaranthus retroflexus); assay: Test C postemergence, visual plant response rating; conditions: Test C, postemergence, 1000 g ai/ha
From the text: as §1, §2

[15] = system: ragweed (common ragweed, Ambrosia artemisiifolia); assay: Test C postemergence, visual plant response rating; conditions: Test C, postemergence, 1000 g ai/ha
From the text: as §1, §2

[16] = system: wheat (Triticum aestivum); assay: Test C postemergence, visual plant response rating; conditions: Test C, postemergence, 1000 g ai/ha
From the text: as §1, §2

[17] = system: Italian ryegrass (Lolium multiflorum); assay: Test A preemergence, visual plant response rating; conditions: 125 g ai/ha, preemergence; 0 to 100 scale, 0 no effect, 100 complete control
From the text: (§3) Seeds of plant species selected from barnyardgrass (Echinochloa crus-galli), kochia (Kochia scoparia), ragweed (common ragweed, Ambrosia elatior), Italian ryegrass (Lolium multiflorum), foxtail, giant (giant foxtail, Setaria faberii), foxtail, green (green foxtail, Setaria viridis), and pigweed (Amaranthus retroflexus) were planted into a blend of loam soil and sand and treated preemergence with a directed soil spray using test chemicals formulated in a non-phytotoxic solvent mixture which included a surfactant.
as §2, with “postemergence” for “post emergence”, “days,” for “d,”, “A,” for “C,”, “(-) response” for “(-)response”

[18] = system: barnyardgrass (Echinochloa crus-galli); assay: Test A preemergence, visual plant response rating; conditions: 125 g ai/ha, preemergence; 0 to 100 scale, 0 no effect, 100 complete control
From the text: as §3
as §2, with “postemergence” for “post emergence”, “days,” for “d,”, “A,” for “C,”, “(-) response” for “(-)response”

[19] = system: foxtail, giant (giant foxtail, Setaria faberii); assay: Test A preemergence, visual plant response rating; conditions: 125 g ai/ha, preemergence; 0 to 100 scale, 0 no effect, 100 complete control
From the text: as §3
as §2, with “postemergence” for “post emergence”, “days,” for “d,”, “A,” for “C,”, “(-) response” for “(-)response”

kochia (Kochia scoparia) [20] = assay: Test A preemergence, visual plant response rating; conditions: 125 g ai/ha, preemergence; 0 to 100 scale, 0 no effect, 100 complete control
From the text: as §3
as §2, with “postemergence” for “post emergence”, “days,” for “d,”, “A,” for “C,”, “(-) response” for “(-)response”

[21] = system: pigweed (Amaranthus retroflexus); assay: Test A preemergence, visual plant response rating; conditions: 125 g ai/ha, preemergence; 0 to 100 scale, 0 no effect, 100 complete control
From the text: as §3
as §2, with “postemergence” for “post emergence”, “days,” for “d,”, “A,” for “C,”, “(-) response” for “(-)response”

[22] = system: ragweed (common ragweed, Ambrosia elatior); assay: Test A preemergence, visual plant response rating; conditions: 125 g ai/ha, preemergence; 0 to 100 scale, 0 no effect, 100 complete control
From the text: as §3
as §2, with “postemergence” for “post emergence”, “days,” for “d,”, “A,” for “C,”, “(-) response” for “(-)response”

[23] = system: Italian ryegrass (Lolium multiflorum); assay: Test A postemergence, visual plant response rating; conditions: Postemergence, 125 g ai/ha; 0 to 100 scale (0 no effect, 100 complete control)
From the text: as §3
as §2, with “postemergence” for “post emergence”, “days,” for “d,”, “A,” for “C,”, “(-) response” for “(-)response”

[24] = system: barnyardgrass (Echinochloa crus-galli); assay: Test A postemergence, visual plant response rating; conditions: Postemergence, 125 g ai/ha; 0 to 100 scale (0 no effect, 100 complete control)
From the text: as §3
as §2, with “postemergence” for “post emergence”, “days,” for “d,”, “A,” for “C,”, “(-) response” for “(-)response”

[25] = system: blackgrass (Alopecurus myosuroides); assay: Test A postemergence, visual plant response rating; conditions: Postemergence, 125 g ai/ha; 0 to 100 scale (0 no effect, 100 complete control)
From the text: as §3
as §2, with “postemergence” for “post emergence”, “days,” for “d,”, “A,” for “C,”, “(-) response” for “(-)response”

corn (Zea mays) [26] = assay: Test A postemergence, visual plant response rating; conditions: Postemergence, 125 g ai/ha; 0 to 100 scale (0 no effect, 100 complete control)
From the text: as §3
as §2, with “postemergence” for “post emergence”, “days,” for “d,”, “A,” for “C,”, “(-) response” for “(-)response”

[27] = system: foxtail, giant (giant foxtail, Setaria faberii); assay: Test A postemergence, visual plant response rating; conditions: Postemergence, 125 g ai/ha; 0 to 100 scale (0 no effect, 100 complete control)
From the text: as §3
as §2, with “postemergence” for “post emergence”, “days,” for “d,”, “A,” for “C,”, “(-) response” for “(-)response”

[28] = system: galium (catchweed bedstraw, Galium aparine); assay: Test A postemergence, visual plant response rating; conditions: Postemergence, 125 g ai/ha; 0 to 100 scale (0 no effect, 100 complete control)
From the text: as §3
as §2, with “postemergence” for “post emergence”, “days,” for “d,”, “A,” for “C,”, “(-) response” for “(-)response”

kochia (Kochia scoparia) [29] = assay: Test A postemergence, visual plant response rating; conditions: Postemergence, 125 g ai/ha; 0 to 100 scale (0 no effect, 100 complete control)
From the text: as §3
as §2, with “postemergence” for “post emergence”, “days,” for “d,”, “A,” for “C,”, “(-) response” for “(-)response”

[30] = system: pigweed (Amaranthus retroflexus); assay: Test A postemergence, visual plant response rating; conditions: Postemergence, 125 g ai/ha; 0 to 100 scale (0 no effect, 100 complete control)
From the text: as §3
as §2, with “postemergence” for “post emergence”, “days,” for “d,”, “A,” for “C,”, “(-) response” for “(-)response”

[31] = system: ragweed (common ragweed, Ambrosia elatior); assay: Test A postemergence, visual plant response rating; conditions: Postemergence, 125 g ai/ha; 0 to 100 scale (0 no effect, 100 complete control)
From the text: as §3
as §2, with “postemergence” for “post emergence”, “days,” for “d,”, “A,” for “C,”, “(-) response” for “(-)response”

[32] = system: wheat (Triticum aestivum); assay: Test A postemergence, visual plant response rating; conditions: Postemergence, 125 g ai/ha; 0 to 100 scale (0 no effect, 100 complete control)
From the text: as §3
as §2, with “postemergence” for “post emergence”, “days,” for “d,”, “A,” for “C,”, “(-) response” for “(-)response”

| Compound | Ryegrass, Italian plant response rating (0 to 100 scale) [1] | Barnyardgrass plant response rating (0 to 100 scale) [2] | Foxtail, Giant plant response rating (0 to 100 scale) [3] | Kochia plant response rating (0 to 100 scale) (kochia (Bassia scoparia) [4]) | Pigweed plant response rating (0 to 100 scale) [5] | Ragweed plant response rating (0 to 100 scale) [6] | Ryegrass, Italian plant response rating (0 to 100 scale) [7] | Barnyardgrass plant response rating (0 to 100 scale) [8] | Blackgrass plant response rating (0 to 100 scale) [9] | Corn plant response rating (0 to 100 scale) (corn (Zea mays) [10]) | Foxtail, Giant plant response rating (0 to 100 scale) [11] | Galium plant response rating (0 to 100 scale) [12] | Kochia plant response rating (0 to 100 scale) (kochia (Bassia scoparia) [13]) | Pigweed plant response rating (0 to 100 scale) [14] | Ragweed plant response rating (0 to 100 scale) [15] | Wheat plant response rating (0 to 100 scale) [16] | further results |
| --- | --- | --- | --- | --- | --- | --- | --- | --- | --- | --- | --- | --- | --- | --- | --- | --- | --- |
| CC(C)O/N=C(/c1c(O)cnn(C)c1=O)c1cccc2ccccc12 [Compound 223] | 0 | 0 | 0 | 0 | 100 | 20 | 0 | 20 | 0 | 0 | 30 | 90 | 0 | 40 | 50 | 0 |  |
| CO/N=C(\c1cc(C(F)(F)F)ccc1Cl)c1c(O)c(C)nn(C)c1=O [Compound 54] |  |  |  |  |  |  |  |  |  |  |  |  |  |  |  |  | Ryegrass, Italian plant response rating [17]: 70; Barnyardgrass plant response rating [18]: 40; Foxtail, Giant plant response rating [19]: 40; Kochia plant response rating (kochia (Kochia scoparia) [20]): 0; Pigweed plant response rating [21]: 80; Ragweed plant response rating [22]: 70; Ryegrass, Italian plant response rating [23]: 40; Barnyardgrass plant response rating [24]: 30; Blackgrass plant response rating [25]: 40; Corn plant response rating (corn (Zea mays) [26]): 10; Foxtail, Giant plant response rating [27]: 40; Galium plant response rating [28]: 70; Kochia plant response rating (kochia (Kochia scoparia) [29]): 50; Pigweed plant response rating [30]: 60; Ragweed plant response rating [31]: 60; Wheat plant response rating [32]: 30 |
| CCO/N=C(/c1c(O)cnn(C)c1=O)c1cccc2ccccc12 [Compound 225] | 0 | 0 | 60 | 10 | 80 | 40 | 0 | 10 | 20 | 0 | 20 | 90 | 10 | 60 | 70 | 0 |  |
| CO/N=C(\c1c(O)cnn(C)c1=O)c1cccc2ccccc12 [Compound 238] | 20 | 0 | 40 | 30 | 100 | 90 | 0 | 20 | 20 | 0 | 40 | 90 | 80 | 90 | 30 | 0 |  |
| CCO/N=C(\c1c(O)cnn(C)c1=O)c1cccc2ccccc12 [Compound 224] | 0 | 10 | 80 | 20 | 100 | 70 | 0 | 10 | 10 | 0 | 50 | 90 | 0 | 50 | 50 | 0 |  |
| CO/N=C(/c1c(O)cnn(C)c1=O)c1cccc2ccccc12 [Compound 237] | 0 | 0 | 60 | 30 | 90 | 20 | 10 | 0 | 10 | 0 | 0 | 100 | 80 | 90 | 30 | 0 |  |

— patent US20210045385A1, “PYRIDAZINONE-SUBSTITUTED KETOXIMES AS HERBICIDES” (FMC Corporation, priority 2018, published 2021)
